For series [1], the system named is humans. Conditions: human, in vivo; cited from earlier work.
Series [2] deals with primary cerebrocortical neurons. Kind of series: Oxygen-glucose deprivation (OGD) of cultured primary cerebrocortical neurons. In kind it is cell-based, mouse. The following applies: for OGD-mediated neuronal death (LDH release): promethazine 0.1 μM (p=0.05) and 0.5 μM (p<0.001). The protocol: Heterocyclic-mediated protection was next examined in two models of stroke: (i) oxygen-glucose deprivation (OGD) of cultured primary cerebrocortical neurons, and; (ii) in the mouse, middle cerebral artery occlusion (MCAO)/reperfusion.
Neurotoxicity studies were conducted as previously described. […] Cerebral cortex of mouse embryos at day 15 (E15) were freed from meninges and separated from olfactory bulb and hippocampus.
OGD of primary cerebrocortical neurons is a widely used cell culture model of stroke-related pathology. […] Caspase-3 activation plays a key role in hypoxia/ischemia-mediated injury. To gam insight into the mechanism of promethazine-mediated neuroprotection, it was evaluated whether this compound could inhibit OGD-mediated caspase-3 activation.
A general note: Release of lactate dehydrogenase indicates damage to the cell membrane.

Series [3] relates to phospholipase A2. In kind it is biochemical.
Series [4] has as its system 3-nitropropionic acid induced striatal lesions in Lewis rats. Kind of series: 3-nitropropionic acid striatal lesion model (Huntington's Disease). Format: in vivo, rat. As for the experimental part: Male Lewis 344 rats were administered 3-nitroproprionic acid by subcutaneous Alzet pumps. 3-Nitropropionic acid is a mitochondrial toxin which causes selective degeneration in the basal ganglia, mice, rats and primates. The lesions that it produces highly mimic the neuropathologic features associated with Huntington's Disease. The male Lewis rats weighed from about 340 to abut 370 grams and were obtained from Charles River Laboratories. At twelve weeks of age, the subcutaneous pumps were implanted. The concentration for each individual rat was calculated so that the animals received a dose of 38 mg/kg/d. Control animals were implanted with empty osmotic pumps. The 3-nitropropionic acid was administered for one week. Animals were treated with either phosphate buffered saline (PBS) promethazine in PBS at doses of 5 to 40 mg/kg/d. One week after the administration of the compound the rats were deeply anesthetized and transcardially perfused with 4% paraformaldehyde in PBS. Subsequently, 50 μm sections were obtained and stained for nissel substance. The lesion volumes were then calculated using stereologic procedures.

The subject of series [5] is MPTP-induced dopamine depletion and dopaminergic neuron loss. Kind of series: MPTP experimental animal model for Parkinson's Disease. Format: in vivo. From the text:
1-Methyl-4-phenyl-1,2,3,6-tetrahydropyridine (MPTP) has been employed as an experimental animal model for Parkinson's Disease. As evidenced by FIG. 9, promethazine appeared to have no effect on striatal dopamine levels at base line.

Series [6] deals with mouse middle cerebral artery occlusion (MCAO)/reperfusion. Kind of series: Middle cerebral artery occlusion (MCAO)/reperfusion, promethazine study. In kind it is in vivo. The protocol:
Middle cerebral artery occlusion/reperfusion studies were conducted as previously described. […] All animal experiments were conducted in accordance with National Institutes of Health and institutional guidelines. Male C57/B6 (Charles River Laboratories) mice weighing 18-29 g were housed in standard temperature (22±1° C.) and light-controlled (light on 07:00-21:00) environment with ad libitum access to food and water. Weight of animals undergoing stroke were restricted to less than 22 g. Animals undergoing stroke were randomized to two groups: untreated OP injection with 0.9% saline) and treated (IP injection with promethazine solution). Weight of animals undergoing sham operations was liberalized to 18-29 g. Surgery and Occlusion: Immediately before surgery, each mouse was anesthetized with 2% isoflurane (70% N2O/30% O2). During surgery, isoflurane was lowered to 1%. A midline incision was made in the neck and the right common carotid artery was dissected. The right MCA was occluded with a 7-0 nylon filament after permanent ligation of the external carotid artery and temporary ligation of the common carotid artery. […] Right MCA occlusion was defined as greater than or equal to a 90% drop of peak velocity measured by the laser Doppler flowmetry drop. […] The occluding filament was removed after 120 minutes. Sham operations consisted of the same duration and concentration of anesthesia, midline incision, doppler probe insertion over right temporal bone, and dissection of common carotid artery but no manipulation of the common carotid artery or external carotid artery. The surgeon was bided to treatment group. All mice were sacrificed at 24 hrs post perfusion. Experiments were in accordance with protocols approved by the Harvard Medical School Animal Care Committee. Drug Treatment: Both treated and control groups received two IP injections: the first one delivered 1 hr prior to ischemia and the second delivered 12 hrs later. Each i.p. dose was 10 mg/kg (in 0.5 ml) of promethazine dissolved in 0.9% NaCl or an equal volume of buffer alone. […] Determination of Infarct Volume: After 24 hrs of reperfusion, the mice were sacrificed. The brains were quickly removed and chilled for 2 minutes. The cerebellum was removed, Coronal sections (2 mm thick; n=6) were cut in a craniotome. […] After staining, each slice was scanned by an HP scanjet 4200 C, The unstained areas in each hemisphere were quantified and the ischemic area per slice=left (normal side)-right (ischemic side). […] The infarct volume was calculated by summing up the infracted areas in the 6 slices and calculating the volume for a cylinder (area×height). […] The examiner was blinded to treatment group.

The test system of series [7] is liver mitochondria. The following applies: cited from earlier work.
Series [8] concerns heart during ischemia. Conditions: cited from earlier work.

As to `CC(CN1c2ccccc2Sc2ccccc21)N(C)C` (stereo not shown) [Promethazine], the tolerability in humans entry in series [1] is “well-tolerated drug with few adverse side effects”. For the same compound, in series [2], the “OGD-mediated caspase-3 activation” value is listed as “reduced” and the “OGD-mediated neuronal death (LDH release)” value is given as “inhibited”. The “OGD-mediated neuronal death (LDH release)” value in series [2] (listed as promethazine) is “protection”. Moreover, in series [3], the PLA2 inhibition result is given as “does not appear to be a strong”. For the same compound, the striatal lesion volume in series [4] (3-nitropropionic acid 38 mg/kg/d for one week, promethazine 5 to 40 mg/kg/d, untreated ~14 mm^3) was about 4 mm^3. The 3-nitropropionic induced lesions result in series [4] (increasing dosages) is recorded as “blocked”. For the same compound, the “MPTP-induced reduction in striatal dopamine levels” value in series [5] (20 mg/kg) was “significantly attenuated”. Moreover, in series [5] (2.5, 5, and 40 mg/kg examined, optimal effects at 10 and 40 mg/kg), the “depletion of striatal dopamine levels, dose response” value is listed as “dose-dependent neuroprotection”. The “loss of dopaminergic neurons in the substantia nigra pars compacta” value in series [5] (50% cell loss following MPTP) was “significantly attenuated”. The “striatal dopamine levels at base line” value in series [5] (without MPTP) is “no effect”. Besides, the “reduction in lesion size compared with saline-treated mice” value in series [6] (10 mg/kg i.p. 1 hr prior to ischemia and 12 hrs later, 24 hrs reperfusion, n=13, p<0.005) stood at 53%. For the same compound, in series [6] (10 mg/kg i.p. twice), the “reduction of maximal infarct size” value came out at 65% and the “reduction of variability of the injury” value was found to be 65%. Also, the neurologic score result in series [6] (30 minute post-ischemia evaluation) is given as “not different”. Moreover, the neurologic impairment score result in series [6] (24 hours following MCAO, p<0.05) is given as “significantly improved”. In addition, the “protection from MCA occlusion/reperfusion” value in series [6] (total stroke volume P<0.005) is listed as “protects”.

`NCCc1c[nH]cn1` [Histamine]: the “swelling of liver mitochondria” value in series [7] is reported as “cause swelling”.

As to `CCN(CC)CCCC(C)Nc1c2ccc(Cl)cc2nc2ccc(OC)cc12` (stereo not shown) [Quinacrine], the “protection in the heart during ischemia” value in series [8] is “protective agent”.
